test system: Leishmania donovani; test: In vitro leishmanicidal activity against promastigotes of Leishmania donovani at 100 ug/ml concentration; type: functional

`CSc1nc2cc(Cl)ccc2c(=O)n1C` and `CCOC(=O)c1c(SC)nn(-c2nc3cc(Cl)ccc3c(=O)n2C)c1N` are the same in “Leishmanicidal activity (% promastigotes killed)” value: 0% for the first, 0% for the second.

Going from `CCn1c(SCc2nnc3n(C)c(=O)c4ccc(Cl)cc4n23)nc2ccc(OC)cc2c1=O` to `CCn1c(SCc2nnc3n(CC)c(=O)c4ccc(Cl)cc4n23)nc2ccc(OC)cc2c1=O`, the “Leishmanicidal activity (% promastigotes killed)” value falls from 10% to 0%.

First: CCn1c(=O)c2cc(OC)ccc2n2c(CCl)nnc12
Second: CCn1c(=O)c2cc(OC)ccc2n2c(S)nnc12
The “Leishmanicidal activity (% promastigotes killed)” value of the first is lower: 67% for the first, 80% for the second.

Compared with `CCn1c(=O)c2ccc(Cl)cc2n2c(C)nnc12`, `CCn1c(=O)c2ccc(Cl)cc2n2c(S)nnc12` is lower in “Leishmanicidal activity (% promastigotes killed)” value: 49% for the first, 30% for the second.

First: CCn1c(=O)c2ccc(Cl)cc2n2cnnc12
Second: Cn1c(=O)c2ccc(Cl)cc2n2cnnc12
The “Leishmanicidal activity (% promastigotes killed)” value of the first is lower: 19% for the first, 81% for the second.

Going from `Cn1c(=O)c2ccc(Cl)cc2n2c(S)nnc12` to `Cn1c(=O)c2ccc(Cl)cc2n2c(CCl)nnc12`, the “Leishmanicidal activity (% promastigotes killed)” value rises from 55% to 95%.

Going from `CCn1c(NN)nc2ccc(OC)cc2c1=O` to `CCn1c(=S)[nH]c2ccc(OC)cc2c1=O`, the “Leishmanicidal activity (% promastigotes killed)” value rises from 0% to 12%.

First: CCn1c(=O)c2ccc(Cl)cc2n2c(CSC3=NCCN3)nnc12
Second: Cn1c(=O)c2ccc(Cl)cc2n2c(CSC3=NCCN3)nnc12
The “Leishmanicidal activity (% promastigotes killed)” value of the first is lower: 24% for the first, 35% for the second.

Compared with `CCn1c(=O)c2ccc(Cl)cc2n2c(CCl)nnc12`, `CCn1c(=O)c2cc(OC)ccc2n2c(C)nnc12` is lower in “Leishmanicidal activity (% promastigotes killed)” value: 70% for the first, 42% for the second.

Compared with `CCOC(=O)c1c(SC)nn(-c2nc3cc(Cl)ccc3c(=O)n2CC)c1N`, `CCn1c(=O)c2cc(OC)ccc2n2cnnc12` is higher in “Leishmanicidal activity (% promastigotes killed)” value: 0% for the first, 39% for the second.

Reference: ChEMBL document CHEMBL1127960, “Latent leishmanicidal activity of quinazolinones and 1,2,4-triazoloquinazolinones” (1994)
